Data from patent publication US9926297B2, “Bicyclic AZA compounds as muscarinic M1 receptor and/or M4 receptor agonists” (Heptares Therapeutics Limited, priority 2014, dated 2018).

Legend:
[1] = molecular target: T1, human muscarinic M4 receptor (Homo sapiens, UniProt P08173); test: Alphascreen Surefire phospho-ERK1/2 functional assay, M4; assay type: cell-based; settings: for EC50: phospho-ERK1/2, * = variable results, read-out: pEC50 M4 (converted); for Emax: CHO, read-out: % Emax cf. ACh, M4, CHO cells stably expressing human M4
T1 construct: expressed in transfected cells
T1 sequence (P08173 1-479): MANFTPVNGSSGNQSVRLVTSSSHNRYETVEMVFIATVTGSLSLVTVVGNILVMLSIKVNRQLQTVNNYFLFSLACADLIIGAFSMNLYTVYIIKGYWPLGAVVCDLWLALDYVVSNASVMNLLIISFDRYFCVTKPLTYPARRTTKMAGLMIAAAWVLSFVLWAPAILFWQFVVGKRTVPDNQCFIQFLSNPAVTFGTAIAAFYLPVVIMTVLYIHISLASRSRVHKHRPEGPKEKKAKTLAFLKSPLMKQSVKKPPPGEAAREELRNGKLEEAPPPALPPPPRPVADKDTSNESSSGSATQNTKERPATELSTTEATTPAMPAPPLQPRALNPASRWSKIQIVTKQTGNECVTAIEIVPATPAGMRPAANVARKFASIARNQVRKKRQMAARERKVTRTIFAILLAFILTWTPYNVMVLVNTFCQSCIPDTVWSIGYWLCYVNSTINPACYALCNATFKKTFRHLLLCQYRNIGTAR

[2] = molecular target: human muscarinic M3 receptor (Homo sapiens, UniProt P20309); test: Alphascreen Surefire phospho-ERK1/2 functional assay, M3; settings: for Emax: CHO, read-out: % Emax cf. ACh, M3, CHO cells stably expressing human M3; for Emax / % Emax cf. ACh, M3: relative to ACh; for EC50: pEC50 M3, CHO cells stably expressing human M3, phospho-ERK1/2, * = variable results; for % Emax cf. ACh, M3: CHO cells stably expressing human M3
[3] = molecular target: T2, human muscarinic M2 receptor (Homo sapiens, UniProt P08172); test: Alphascreen Surefire phospho-ERK1/2 functional assay, M2; settings: for Emax: CHO, read-out: % Emax cf. ACh, M2, CHO cells stably expressing human M2
T2 sequence (P08172 1-466): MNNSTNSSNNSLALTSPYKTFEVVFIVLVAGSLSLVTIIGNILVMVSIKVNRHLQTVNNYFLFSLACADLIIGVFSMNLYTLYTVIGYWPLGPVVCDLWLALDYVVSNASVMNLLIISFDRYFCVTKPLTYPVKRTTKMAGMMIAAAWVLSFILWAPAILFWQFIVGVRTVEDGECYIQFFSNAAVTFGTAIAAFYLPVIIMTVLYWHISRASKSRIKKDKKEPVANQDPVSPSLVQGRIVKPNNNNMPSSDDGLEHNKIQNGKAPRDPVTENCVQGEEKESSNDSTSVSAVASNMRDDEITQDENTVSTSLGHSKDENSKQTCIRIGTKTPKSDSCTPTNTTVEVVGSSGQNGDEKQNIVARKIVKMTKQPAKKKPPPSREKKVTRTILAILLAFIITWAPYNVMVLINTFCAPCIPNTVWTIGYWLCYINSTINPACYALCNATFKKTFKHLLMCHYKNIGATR

[4] = molecular target: T3, human muscarinic M1 receptor (Homo sapiens, UniProt P11229); test: Alphascreen Surefire phospho-ERK1/2 functional assay, M1; assay type: cell-based; settings: for EC50: phospho-ERK1/2, * = variable results, read-out: pEC50 M1 (converted); for Emax: CHO, read-out: % Emax cf. ACh, M1, CHO cells stably expressing human M1
T3 sequence (P11229 1-460): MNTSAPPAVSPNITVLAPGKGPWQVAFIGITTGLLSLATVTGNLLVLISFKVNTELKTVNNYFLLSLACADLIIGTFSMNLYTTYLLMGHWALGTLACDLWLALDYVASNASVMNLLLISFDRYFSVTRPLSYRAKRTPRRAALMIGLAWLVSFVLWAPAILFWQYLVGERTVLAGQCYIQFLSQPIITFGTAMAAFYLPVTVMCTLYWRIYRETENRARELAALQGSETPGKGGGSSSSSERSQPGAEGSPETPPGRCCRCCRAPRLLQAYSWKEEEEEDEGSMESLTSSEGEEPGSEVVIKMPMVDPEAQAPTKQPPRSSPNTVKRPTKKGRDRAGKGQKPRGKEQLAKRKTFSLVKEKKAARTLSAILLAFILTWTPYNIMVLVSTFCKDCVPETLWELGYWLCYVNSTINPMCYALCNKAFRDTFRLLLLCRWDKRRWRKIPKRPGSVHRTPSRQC

[5] = CHO cells stably expressing human M4
[6] = CHO cells stably expressing human M1

Sequence of human muscarinic M3 receptor (P20309 whole entry): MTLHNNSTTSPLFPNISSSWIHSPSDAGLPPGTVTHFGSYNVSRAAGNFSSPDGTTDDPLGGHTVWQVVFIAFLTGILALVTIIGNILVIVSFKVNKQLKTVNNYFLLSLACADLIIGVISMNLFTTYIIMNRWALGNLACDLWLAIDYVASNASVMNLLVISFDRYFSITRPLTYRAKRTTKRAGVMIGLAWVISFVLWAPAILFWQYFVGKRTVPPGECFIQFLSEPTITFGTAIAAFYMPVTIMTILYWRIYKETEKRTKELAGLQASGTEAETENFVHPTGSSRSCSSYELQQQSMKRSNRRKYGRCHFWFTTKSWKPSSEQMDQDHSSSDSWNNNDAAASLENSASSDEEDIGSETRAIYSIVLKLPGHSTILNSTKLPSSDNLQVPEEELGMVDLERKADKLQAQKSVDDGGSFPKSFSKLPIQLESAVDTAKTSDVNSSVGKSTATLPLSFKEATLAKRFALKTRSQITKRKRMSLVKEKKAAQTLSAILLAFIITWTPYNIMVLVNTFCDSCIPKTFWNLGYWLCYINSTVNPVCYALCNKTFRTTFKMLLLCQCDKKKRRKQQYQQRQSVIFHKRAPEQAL

Structure (SMILES)	EC50 [1, 5] [nM]	Emax ([1]; relative to ACh) [%]	Emax [2] [%]	EC50 [2] [µM]	EC50 [3] [µM]	Emax ([3]; relative to ACh) [%]	EC50 [4, 6] [nM]	Emax ([4]; relative to ACh) [%]	% Emax cf. ACh, M3 [2] [%]	% Emax cf. ACh, M4 ([1]; CHO cells stably expressing human M4, relative to ACh) [%]	pEC50 M2 ([3]; CHO cells stably expressing human M2, phospho-ERK1/2, * = variable results)	% Emax cf. ACh, M2 ([3]; CHO cells stably expressing human M2, relative to ACh) [%]	% Emax cf. ACh, M1 ([4]; CHO cells stably expressing human M1, relative to ACh) [%]
CCOC(=O)N1CCC2(CC(N3CCC(N4CCC(F)(F)C4)CC3)C2)C1 (single isomer, unassigned) [2-100 Isomer 2, ethyl 2-[4-(3,3-difluoropyrrolidin-1-yl)piperidin-1-yl]-6-azaspiro[3.4]octane-6-carboxylate]	200	55	5	> 20	> 20	4	> 20000	16	–	–	–	–	–
CCOC(=O)N1CCC2(CC(N3CCC(N4CCC[C@@H]4CF)CC3)C2)C1 (single isomer, unassigned) [2-102 Isomer 2]	316	45	11	> 20	> 20	1	5010	23	–	–	–	–	–
CCOC(=O)N1CCC2(CC(N3CCC(N4CCC[C@@H]4C(F)F)CC3)C2)C1 (single isomer, unassigned) [2-103 Isomer 2]	20	100	3	> 20	> 20	4	200	26	–	–	–	–	–
CCOC(=O)N1CCC2(CC(N3CCC(N4CCC[C@@H]4C(F)(F)F)CC3)C2)C1 (single isomer, unassigned) [2-104 Isomer 2]	15.8	111	8	> 20	> 20	8	79.4	102	–	–	–	–	–
CCOC(=O)N1CCC2(CC(N3CCC(N4CC(F)(F)C[C@@H]4C)CC3)C2)C1 (single isomer, unassigned) [2-106 Isomer 2]	20	102	5	> 20	> 20	10	126	97	–	–	–	–	–
CCOC(=O)N1CCC2(CC(N3CCC(N4CC(F)(F)C[C@@H]4CO)CC3)C2)C1 (single isomer, unassigned) [2-107 Isomer 2]	6.31	–	48	> 20	> 20	–	63.1	–	–	–	–	–	–
CCOC(=O)N1CCC2(CC(N3CCC(N4CC(F)(F)C[C@@H]4C(C)O)CC3)C2)C1 (single isomer, unassigned) [2-109 Isomer 2]	15.8	91	–	10	> 20	9	398	50	26	–	–	–	–
CCOC(=O)N1CCC2(CC(N3CCC(N4CC(F)(F)C[C@@H]4C(C)O)CC3)C2)C1 (single isomer, unassigned) [2-109 Isomer 4]	20	–	–	> 20	–	–	316	–	9	82	< 4.7	15	42
CCOC(=O)N1CCC2(CC(N3CCC(N4CCCC4=O)CC3)C2)C1 (single isomer, unassigned) [2-111 Isomer 2, ethyl 2-[4-(2-oxopyrrolidin-1-yl)piperidin-1-yl]-6-azaspiro[3.4]octane-6-carboxylate]	31.6	62	0	> 20	> 20	1	501	31	–	–	–	–	–
CCOC(=O)N1CCC2(CC(N3CCC(N4C(=O)CCC4(C)C)CC3)C2)C1 (single isomer, unassigned) [2-117 Isomer 2, ethyl 2-[4-(2,2-dimethyl-5-oxopyrrolidin-1-yl)piperidin-1-yl]-6-azaspiro[3.4]octane-6-carboxylate]	63.1	96	7	> 20	> 20	4	6310	99	–	–	–	–	–
CCOC(=O)N1CCC2(CC(N3CCC(N4C(=O)OC[C@@H]4C(C)C)CC3)C2)C1 (single isomer, unassigned) [2-123 Isomer 2]	316	93	29	> 20	> 20	8	316	114	–	–	–	–	–
CCOC(=O)N1CCC2(CC(N3CCC(N4CCNC4=O)CC3)C2)C1 (single isomer, unassigned) [2-124 Isomer 2, ethyl 2-[4-(2-oxoimidazolidin-1-yl)piperidin-1-yl]-6-azaspiro[3.4]octane-6-carboxylate]	79.4	77	0	> 20	> 20	2	631	45	–	–	–	–	–
CCOC(=O)N1CCC2(CC(N3CCC(c4ccc[nH]c4=O)CC3)C2)C1 (single isomer, unassigned) [3-2 Isomer 1, ethyl 2-[4-(2-oxo-1,2-dihydropyridin-3-yl)piperidin-1-yl]-6-azaspiro[3.4]octane-6-carboxylate]	6.31	115	0	> 20	> 20	7	31.6	97	–	–	–	–	–
O=C(OCCF)N1CCC2(CC(N3CCC(c4ccc[nH]c4=O)CC3)C2)C1 (single isomer, unassigned) [3-3 Isomer 2, 2-fluoroethyl 2-[4-(2-oxo-1,2-dihydropyridin-3-yl)piperidin-1-yl]-6-azaspiro[3.4]octane-6-carboxylate]	6.31	106	56	> 20	10	50	25.1	81	–	–	–	–	–
COc1ncccc1C1CCN(C2CC3(CCN(C(=O)OCCF)C3)C2)CC1 (single isomer, unassigned) [3-5 Isomer 2, 2-fluoroethyl 2-[4-(2-methoxypyridin-3-yl)piperidin-1-yl]-6-azaspiro[3.4]octane-6-carboxylate]	15.8	80	11	> 20	> 20	65	> 20000	20	–	–	–	–	–
CCOC(=O)N1CCC2(CC(N3CCC(c4cnc(OC)cc4C)CC3)C2)C1 (single isomer, unassigned) [3-6 Isomer 2, ethyl 2-[4-(6-methoxy-4-methylpyridin-3-yl)piperidin-1-yl]-6-azaspiro[3.4]octane-6-carboxylate]	39.8	58	4	> 20	> 20	0	> 20000	74	–	–	–	–	–
CCOC(=O)N1CCC2(CC(N3CCC(c4ccnc(N)n4)CC3)C2)C1 (single isomer, unassigned) [3-8 Isomer 2, ethyl 2-[4-(2-aminopyrimidin-4-yl)piperidin-1-yl]-6-azaspiro[3.4]octane-6-carboxylate]	25.1	54	0	> 20	> 20	2	> 20000	19	–	–	–	–	–
